Measurements from US9987276B2 (Celgene CAR LLC, priority 2008, dated 2018).
Like-named read-outs stand apart in the source and are kept apart here.

Columns and labels:
EGFR-WT = EGFR-WT (Homo sapiens (Human), UniProt P00533); assay: Omnia assay for potency assessment against EGFR (WT)
BTK = BTK (Homo sapiens (Human), UniProt Q06187); assay: Omnia assay for potency assessment against BTK; assay type: biochemical; details: [BTK]=5 nM, Omnia assay; read-out: BTK Inhibition (IC50)
Method: The modified BTK-optimized reagent conditions for the above protocol are:
[BTK]=5 nM, [ATP]=[…], [Y5-Sox]=[…] (ATP KMapp˜[…]).

[1] = read-out: EGFR (wild type inhibition), EGFR wild type

Sequence of EGFR-WT (P00533 668-1210): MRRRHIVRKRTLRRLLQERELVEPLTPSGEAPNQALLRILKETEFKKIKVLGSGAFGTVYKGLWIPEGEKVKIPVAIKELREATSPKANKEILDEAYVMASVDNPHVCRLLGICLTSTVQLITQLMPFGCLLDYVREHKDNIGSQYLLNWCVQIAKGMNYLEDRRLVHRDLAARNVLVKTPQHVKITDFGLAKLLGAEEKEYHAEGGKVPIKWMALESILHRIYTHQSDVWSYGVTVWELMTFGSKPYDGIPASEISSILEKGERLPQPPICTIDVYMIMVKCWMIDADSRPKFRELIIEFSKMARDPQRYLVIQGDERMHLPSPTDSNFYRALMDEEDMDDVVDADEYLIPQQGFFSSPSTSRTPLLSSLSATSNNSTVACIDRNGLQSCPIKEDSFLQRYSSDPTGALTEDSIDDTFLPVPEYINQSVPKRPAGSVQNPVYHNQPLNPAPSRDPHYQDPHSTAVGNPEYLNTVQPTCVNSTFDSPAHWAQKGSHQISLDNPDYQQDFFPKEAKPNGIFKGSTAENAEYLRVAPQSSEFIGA
Sequence of BTK (Q06187 whole entry): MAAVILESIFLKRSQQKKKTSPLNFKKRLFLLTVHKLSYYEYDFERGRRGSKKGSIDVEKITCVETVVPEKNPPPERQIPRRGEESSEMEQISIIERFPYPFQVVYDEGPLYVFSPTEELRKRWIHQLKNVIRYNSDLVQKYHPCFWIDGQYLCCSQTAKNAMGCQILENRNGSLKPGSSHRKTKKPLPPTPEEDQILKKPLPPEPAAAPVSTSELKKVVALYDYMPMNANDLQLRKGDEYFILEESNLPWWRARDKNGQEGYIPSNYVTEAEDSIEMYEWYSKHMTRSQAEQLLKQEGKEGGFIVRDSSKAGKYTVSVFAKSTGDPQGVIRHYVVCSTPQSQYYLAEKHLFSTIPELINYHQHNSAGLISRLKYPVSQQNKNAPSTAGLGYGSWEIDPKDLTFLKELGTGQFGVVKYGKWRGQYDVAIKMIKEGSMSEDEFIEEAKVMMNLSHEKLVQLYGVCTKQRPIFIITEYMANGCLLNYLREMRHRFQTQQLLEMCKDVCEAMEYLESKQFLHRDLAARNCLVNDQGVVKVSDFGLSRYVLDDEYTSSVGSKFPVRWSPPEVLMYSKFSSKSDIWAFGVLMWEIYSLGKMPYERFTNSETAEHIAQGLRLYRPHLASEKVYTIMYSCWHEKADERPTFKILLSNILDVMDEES

| SMILES | IC50 (EGFR-WT; [1]) [nM] | IC50 (BTK) [nM] | IC50 (EGFR-WT) [nM] |
| --- | --- | --- | --- |
| C=CC(=O)Nc1cccc(Nc2ncc(F)c(Oc3ccc(Oc4ccccc4)cc3)n2)c1 [Compound I-212] | 1000 to 10000 | 1000 to 10000 |  |
| C=CC(=O)Nc1cccc(Nc2nc(Nc3cccc(N4CCN(CCO)CC4)c3)ncc2F)c1 [Compound I-83, N-(3-(2-(3-(4-(2-hydroxyethyl)piperazin-1-yl)phenylamino)-5-fluoropyrimidin-4-ylamino)phenyl)acrylamide] |  |  | 10 to 100 |
| C=CC(=O)Nc1cccc(Nc2nc(Nc3ccccc3)ncc2C(=O)Nc2ccccc2)c1 [Compound I-222, 4-(3-acrylamidophenylamino)-N-phenyl-2-(phenylamino)pyrimidine-5-carboxamide] |  |  | 100 to 1000 |
| Cc1cccc(Nc2nc(Nc3cccc(NC(=O)/C=C/Cn4cccn4)c3)ncc2F)c1 [Compound I-100, (E)-N-(3-(5-fluoro-4-(m-tolylamino)pyrimidin-2-ylamino)phenyl)-4-(1H-pyrazol-1-yl)but-2-enamide] | 1000 to 10000 |  |  |
| C=CC(=O)Nc1cccc(Nc2nc(Nc3ccc(OCCOC)cc3)ncc2C2CC2)c1 [Compound I-139, N-(3-(5-cyclopropyl-2-(4-(2-methoxyethoxy)phenylamino)pyrimidin-4-ylamino)phenyl)acrylamide] |  |  | 10 to 100 |
| C=CC(=O)Nc1cccc(Nc2nc(Nc3ccc(OCCOC)c(F)c3)ncc2C#N)c1 [Compound I-350, N-(3-(5-cyano-2-(3-fluoro-4-(2-methoxyethoxy)phenylamino)pyrimidin-4-ylamino)phenyl)acrylamide] | < 10 | < 10 |  |
| C=CC(=O)Nc1ccc(Nc2nc(Nc3cccc(OC)c3)ncc2C(F)(F)F)cc1 [Compound I-236, N-(4-(5-trifluoromethyl-2-(3-methoxyphenylamino)pyrimidin-4-ylamino)phenyl)acrylamide] | 1000 to 10000 | 10 to 100 |  |
| CC(C)=CC(=O)c1cccc(Nc2nc(Nc3cccc(S(N)(=O)=O)c3)ncc2C)c1 [Compound I-224, 1-(3-(5-methyl-2-(3-aminosulfonylphenylamino)pyrimidin-4-ylamino)phenyl)-3-methylbut-2-en-1-one] |  | 10 to 100 | 100 to 1000 |
| C=CC(=O)N1CCC[C@@H](Nc2nc(Nc3ccc(O[C@H]4CCOC4)cc3)ncc2F)C1 [Compound I-347, 1-((R)-3-(5-fluoro-2-(4-((S)-tetrahydrofuran-3-yloxy)phenylamino)pyrimidin-4-ylamino)piperidin-1-yl)prop-2-en-1-one] |  | < 10 | 10 to 100 |
| C=CC(=O)Nc1cccc(Nc2nc(Nc3ccc(Cl)c(OC)c3)ncc2F)c1 [Compound I-74, N-(3-(5-fluoro-2-(4-chloro-3-methoxyphenylamino)pyrimidin-4-ylamino)phenyl)acrylamide] |  | < 10 | 100 to 1000 |
| C=CC(=O)Nc1cccc(Nc2nc(Nc3cccnc3)ncc2F)c1 [Compound I-234, N-(3-(5-fluoro-2-(pyridin-3-ylamino)pyrimidin-4-ylamino)phenyl)acrylamide] | > 10000 | 1000 to 10000 |  |
| C=C(Cn1cccn1)C(=O)Nc1cccc(Nc2ncc(F)c(Nc3cccc(C)c3)n2)c1 [Compound I-98, 2-((1H-pyrazol-1-yl)methyl)-N-(3-(5-fluoro-4-(m-tolylamino)pyrimidin-2-ylamino)phenyl)acrylamide] |  |  | 100 to 1000 |
| COc1cccc(Nc2ncc(C(F)(F)F)c(N[C@@H]3CCC[C@H](C(=O)C=C(C)C)C3)n2)c1 (stereo in doubt) [Compound I-213, 1-(3-(2-(3-Methoxy-phenylamino)-5-trifluoromethyl-pyrimidin-4-ylamino)-cyclohexyl)-3-methyl-but-2-en-1-one] |  | > 10000 | 100 to 1000 |
| C=CC(=O)Nc1cccc(Nc2nc(Nc3ccc4c(c3)OCCO4)ncc2F)c1 [Compound I-349] |  | < 10 | 10 to 100 |
| C=CC(=O)N1CCC[C@@H](Nc2nc(Nc3ccc(O[C@@H]4CCOC4)cc3)ncc2F)C1 [Compound I-348, 1-((R)-3-(5-fluoro-2-(4-((R)-tetrahydrofuran-3-yloxy)phenylamino)pyrimidin-4-ylamino)piperidin-1-yl)prop-2-en-1-one] |  | < 10 | 10 to 100 |
| C=CC(=O)Nc1cccc(Nc2nc(Nc3ccc(Cl)c(O[C@H](C)CO)c3)ncc2F)c1 [Compound I-358, (R)—N-(3-(2-(4-chloro-3-(1-hydroxypropan-2-yloxy)phenylamino)-5-fluoropyrimidin-4-ylamino)phenyl)acrylamide] |  | < 10 | 100 to 1000 |
| C=CC(=O)N1CCOc2ccc(Nc3nc(Nc4ccc(OCCO)nc4)ncc3C(C)=O)cc21 [Compound I-128, 1-(6-{5-Acetyl-2-[6-(2-hydroxy-ethoxy)-pyridin-3-ylamino]-pyrimidin-4-ylamino}-2,3-dihydro-benzo[1,4]oxazin-4-yl)-propenone] |  |  | 10 to 100 |
| C=CC(=O)Nc1cccc(Nc2nc(Nc3ccc(Cl)c(OCCCS(C)(=O)=O)c3)ncc2F)c1 [Compound I-55, N-(3-(2-(4-chloro-3-(3-(methylsulfonyl)propoxy)phenylamino)-5-fluoropyrimidin-4-ylamino)phenyl)acrylamide] |  | < 10 |  |

| SMILES | IC50 (EGFR-WT; [1]) [nM] | IC50 (BTK) [nM] | IC50 (EGFR-WT) [nM] |
| --- | --- | --- | --- |
| C=CC(=O)N1CCCC(Oc2nc(Nc3ccc(OC)nc3)ncc2F)C1 (stereo not shown) [Compound I-191] | 1000 to 10000 | < 10 |  |
| C=CC(=O)Nc1ccc(Nc2nc(Nc3ccc(OCCOC)c(F)c3)ncc2F)cc1 [Compound I-351, N-(4-(5-fluoro-2-(3-fluoro-4-(2-methoxyethoxy)phenylamino)pyrimidin-4-ylamino)phenyl)acrylamide] |  | < 10 | 100 to 1000 |
| C=CC(=O)NCc1ccc(Nc2nc(Nc3cccc(OC)c3)ncc2C(F)(F)F)cc1 [Compound I-235, N-(4-(5-trifluoromethyl-2-(3-methoxyphenylamino)pyrimidin-4-ylamino)phenyl)methylacrylamide] | > 10000 |  |  |
| C=C(C#N)C(O)c1cccc(Nc2nc(Nc3ccc(OCC(C)(C)O)nc3)ncc2F)c1 (stereo not shown) [Compound I-312, 2-((3-(5-fluoro-2-(6-(2-hydroxy-2-methylpropoxy)pyridin-3-ylamino)pyrimidin-4-ylamino)phenyl)(hydroxy)methyl)acrylonitrile] |  | < 10 |  |
| C=CC(=O)Nc1cccc(N(C)c2nc(Nc3ccc4c(c3)N(C)CCO4)ncc2F)c1 [Compound I-127] |  |  | 100 to 1000 |
| COc1cccc(Nc2ncc(C(F)(F)F)c(Nc3cccc(C(=O)C=C(C)C)c3)n2)c1 [Compound I-225, 1-(3-(5-trifluoromethyl-2-(3-methoxyphenylamino)pyrimidin-4-ylamino)phenyl)-3-methyl-but-2-en-1-one] | 1000 to 10000 |  |  |
| C=CC(=O)Nc1cccc(Nc2ncc(C)c(Nc3cccc(Br)c3)n2)c1 [Compound I-9, N-(3-(4-(3-bromophenylamino)-5-methylpyrimidin-2-ylamino)phenyl) acrylamide] |  | < 10 |  |
| COCCOc1ccc(Nc2ncc(F)c(Nc3cccc(C(=O)C=C(C)C)c3)n2)cc1F [Compound I-323, 1-(3-(5-fluoro-2-(3-fluoro-4-(2-methoxyethoxy)phenylamino)pyrimidin-4-ylamino)phenyl)-3-methylbut-2-en-1-one] | > 10000 |  |  |
| COCCOc1ccc(Nc2ncc(F)c(Nc3cccc(CC(=O)C=C(C)C)c3)n2)cc1F [Compound I-330, 1-(3-(5-fluoro-2-(3-fluoro-4-(2-methoxyethoxy)phenylamino)pyrimidin-4-ylamino)phenyl)-4-methylpent-3-en-2-one] | > 10000 |  |  |
| C=CC(=O)N1CCOc2ccc(Nc3nc(Nc4ccc(N5CCCC5=O)cc4)ncc3C(C)=O)cc21 [Compound I-152, 1-{4-[5-Acetyl-4-(4-acryloyl-3,4-dihydro-2H-benzo[1,4]oxazin-6-ylamino)-pyrimidin-2-ylamino]-phenyl}-pyrrolidin-2-one] |  |  | 10 to 100 |
| C=CC(=O)Nc1cccc(Nc2nc(Nc3ccc(OC)nc3)ncc2C(=O)NC(C)(C)C)c1 [Compound I-216, 4-(3-acrylamidophenylamino)-N-tert-butyl-2-(6-methoxypyridin-3-ylamino)pyrimidine-5-carboxamide] | 1000 to 10000 |  |  |
| C=CC(=O)NCc1cccc(Nc2nc(Nc3cccc(OC)c3)ncc2C(F)(F)F)c1 [Compound I-226, N-(3-(5-trifluoromethyl-2-(3-methoxyphenylamino)pyrimidin-4-ylamino)phenyl)methylacrylamide] | 1000 to 10000 |  |  |
| C=CC(=O)N(C)Cc1cccc(Nc2nc(Nc3cccc(OC)c3)ncc2F)c1 [Compound I-115, N-(3-(5-fluoro-2-(3-methyoxyphenylamino)pyrimidin-4-ylamino)benzyl)-N-methylacrylamide] |  | 10 to 100 |  |
| C=CC(=O)N1CCC(Nc2nc(Nc3ccccc3)ncc2F)CC1 [Compound I-229, 1-(4-(5-fluoro-2-(phenylamino)pyrimidin-4-ylamino)piperidin-1-yl)prop-2-en-1-one] |  | 10 to 100 |  |
| COCCOc1ccc(Nc2ncc(F)c(Nc3ccc(CC(=O)C=C(C)C)cc3)n2)cc1F [Compound I-331, 1-(4-(5-fluoro-2-(3-fluoro-4-(2-methoxyethoxy)phenylamino)pyrimidin-4-ylamino)phenyl)-4-methylpent-3-en-2-one] | 1000 to 10000 |  |  |
| COCCOc1ccc(Nc2ncc(F)c(Nc3ccc(C(=O)C=C(C)C)cc3)n2)cc1F [Compound I-325, 1-(4-(5-fluoro-2-(3-fluoro-4-(2-methoxyethoxy)phenylamino)pyrimidin-4-ylamino)phenyl)-3-methylbut-2-en-1-one] | 1000 to 10000 |  |  |
| Cc1cccc(Nc2nc(Nc3cccc(NC(=O)/C=C/CN4CCOCC4)c3)ncc2F)c1 [Compound I-102, (E)-N-(3-(5-fluoro-4-(m-tolylamino)pyrimidin-2-ylamino)phenyl)-4-morpholinobut-2-enamide] |  |  | 100 to 1000 |
| Cc1cccc(Nc2nc(Nc3cccc(NC(=O)/C=C/CN4CCC4)c3)ncc2F)c1 [Compound I-123, (E)-4-(azetidin-1-yl)-N-(3-(5-fluoro-4-(m-tolylamino)pyrimidin-2-ylamino)phenyl)but-2-enamide] |  |  | 10 to 100 |
